Assays:
Test in all cases: cells
MS-1 = type: functional, cell-based; conditions: Homo sapiens;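 also: growth inhibition of MS-1 cells, read out by cell viability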
Description: SANGER: Inhibition of human MS-1 cell growth in a cell viability assay.

GT3TKB = type: functional, cell-based, Homo sapiens; conditions: Homo sapiens, GT3TKB;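 also: growth inhibition of the cell line, read out with a cell viability assay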
Description: SANGER: Inhibition of human GT3TKB cell growth in a cell viability assay.

GCT = type: functional, cell-based, Homo sapiens; conditions: Homo sapiens, GCT;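 also: GCT cell line proliferation inhibition, read out with a cell viability assay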
Description: SANGER: Inhibition of human GCT cell growth in a cell viability assay.

KYSE-180 = type: functional, cell-based, Homo sapiens; conditions: Homo sapiens, KYSE-180;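 also: growth inhibition of KYSE-180 cells, read out with a cell viability assay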
Description: SANGER: Inhibition of human KYSE-180 cell growth in a cell viability assay.

NCI-H1304 = type: functional, cell-based; conditions: Homo sapiens;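 also: growth inhibition of the cancer cell line, measured in a cell viability assay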
Description: SANGER: Inhibition of human NCI-H1304 cell growth in a cell viability assay.

A4-Fuk = type: functional, cell-based; conditions: Homo sapiens;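 also: growth inhibition of A4-Fuk cells, read out by a cell viability assay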
Description: SANGER: Inhibition of human A4-Fuk cell growth in a cell viability assay.

RS4-11 = type: functional, cell-based; conditions: Homo sapiens;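 also: growth inhibition of RS4-11 cells, read out by a cell viability assay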
Description: SANGER: Inhibition of human RS4-11 cell growth in a cell viability assay.

MMAC-SF = type: functional, cell-based, Homo sapiens; conditions: Homo sapiens, MMAC-SF;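 also: growth inhibition of human MMAC-SF cells, read out with a cell viability assay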
Description: SANGER: Inhibition of human MMAC-SF cell growth in a cell viability assay.

P12-Ichikawa = type: functional, cell-based; conditions: Homo sapiens
KALS-1 = type: functional, cell-based, Homo sapiens; conditions: Homo sapiens, KALS-1;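 also: growth inhibition of KALS-1 cells, determined with a cell viability assay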
Description: SANGER: Inhibition of human KALS-1 cell growth in a cell viability assay.

CaR-1 = type: functional, cell-based, Homo sapiens; conditions: Homo sapiens, CaR-1;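 also: growth inhibition of human CaR-1 cancer cells, read out with a cell viability assay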
Description: SANGER: Inhibition of human CaR-1 cell growth in a cell viability assay.

NB17 = type: functional, cell-based; conditions: Homo sapiens;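 also: growth inhibition of NB17 cells, read out with a cell viability assay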
Description: SANGER: Inhibition of human NB17 cell growth in a cell viability assay.

IST-MEL1 = type: functional, cell-based, Homo sapiens; conditions: Homo sapiens, IST-MEL1;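 also: growth inhibition of the cell line, read out with a cell viability assay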
Description: SANGER: Inhibition of human IST-MEL1 cell growth in a cell viability assay.

RO82-W-1 = type: functional, cell-based, Homo sapiens; conditions: Homo sapiens, RO82-W-1;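 also: growth inhibition of human RO82-W-1 cells, measured with a cell viability assay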
Description: SANGER: Inhibition of human RO82-W-1 cell growth in a cell viability assay.

UACC-62 = type: functional, cell-based, Homo sapiens; conditions: Homo sapiens, UACC-62;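 also: growth inhibition of human UACC-62 cells, read out by a cell viability assay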
Description: SANGER: Inhibition of human UACC-62 cell growth in a cell viability assay.

COR-L23 = type: functional, cell-based, Homo sapiens; conditions: Homo sapiens, COR-L23;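 also: cell viability assay measuring how strongly compounds suppress growth of COR-L23 cells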
Description: SANGER: Inhibition of human COR-L23 cell growth in a cell viability assay.

A101D = type: functional, cell-based, Homo sapiens; conditions: Homo sapiens, A101D;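 also: growth inhibition of the cell line, measured with a viability assay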
Description: SANGER: Inhibition of human A101D cell growth in a cell viability assay.

SW756 = type: functional, cell-based, Homo sapiens; conditions: Homo sapiens, SW756;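 also: growth inhibition of human SW756 cells, read out with a cell viability assay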
Description: SANGER: Inhibition of human SW756 cell growth in a cell viability assay.

HCC1954 = type: functional, cell-based, Homo sapiens; conditions: Homo sapiens, HCC1954;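 also: growth inhibition of human HCC1954 cells, read out with a cell viability assay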
Description: SANGER: Inhibition of human HCC1954 cell growth in a cell viability assay.

OAW-28 = type: functional, cell-based, Homo sapiens; conditions: Homo sapiens, OAW-28;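 also: growth inhibition of OAW-28 cells, read out with a cell viability assay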
Description: SANGER: Inhibition of human OAW-28 cell growth in a cell viability assay.

ME-180 = type: functional, cell-based; conditions: Homo sapiens;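 also: cell viability assay measuring growth inhibition of ME-180 cells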
Description: SANGER: Inhibition of human ME-180 cell growth in a cell viability assay.

BHY = type: functional, cell-based, Homo sapiens; conditions: Homo sapiens, BHY;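 also: cell growth inhibition read out by a viability assay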
Description: SANGER: Inhibition of human BHY cell growth in a cell viability assay.

VA-ES-BJ = type: functional, cell-based, Homo sapiens; conditions: Homo sapiens, VA-ES-BJ;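 also: growth inhibition of the VA-ES-BJ cell line, read out by a cell viability assay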
Description: SANGER: Inhibition of human VA-ES-BJ cell growth in a cell viability assay.

M14 = type: functional, cell-based, Homo sapiens; conditions: Homo sapiens, M14;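 also: growth inhibition of M14 cells, read out with a cell viability assay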
Description: SANGER: Inhibition of human M14 cell growth in a cell viability assay.

MDA-MB-453 = type: functional, cell-based, Homo sapiens; conditions: Homo sapiens, MDA-MB-453
Description: SANGER: Inhibition of human MDA-MB-453 cell growth in a cell viability assay.

BCPAP = type: functional, cell-based, Homo sapiens; conditions: Homo sapiens, BCPAP;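 also: growth inhibition of BCPAP cells, read out in a cell viability assay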
Description: SANGER: Inhibition of human BCPAP cell growth in a cell viability assay.

A498 = type: functional, cell-based, Homo sapiens; conditions: Homo sapiens, A498;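 also: growth inhibition of human A498 cells, read out with a cell viability assay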
Description: SANGER: Inhibition of human A498 cell growth in a cell viability assay.

DMS-273 = type: functional, cell-based, Homo sapiens; conditions: Homo sapiens, DMS-273
Description: SANGER: Inhibition of human DMS-273 cell growth in a cell viability assay.

DEL = type: functional, cell-based; conditions: Homo sapiens;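 also: growth inhibition of the human DEL cell line, read out with a cell viability assay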
Description: SANGER: Inhibition of human DEL cell growth in a cell viability assay.

Huh-7 = type: functional, cell-based, Homo sapiens; conditions: Homo sapiens, Huh-7;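 also: HuH-7 cell growth inhibition, read out with a cell viability assay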
Description: SANGER: Inhibition of human HuH-7 cell growth in a cell viability assay.

BPH-1 = type: functional, cell-based, Homo sapiens; conditions: Homo sapiens, BPH-1;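 also: cell viability assay measuring growth inhibition of human BPH-1 cells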
Description: SANGER: Inhibition of human BPH-1 cell growth in a cell viability assay.

HCC1806 = type: functional, cell-based, Homo sapiens; conditions: Homo sapiens, HCC1806;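 also: growth inhibition of the cancer cell line, determined with a cell viability assay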
Description: SANGER: Inhibition of human HCC1806 cell growth in a cell viability assay.

TE-11 = type: functional, cell-based, Homo sapiens; conditions: Homo sapiens, TE-11;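 also: growth inhibition of human TE-11 cells, read out by a cell viability assay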
Description: SANGER: Inhibition of human TE-11 cell growth in a cell viability assay.

SAS = type: functional, cell-based, Homo sapiens; conditions: Homo sapiens, SAS;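 also: growth inhibition of SAS cells, read out with a cell viability assay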
Description: SANGER: Inhibition of human SAS cell growth in a cell viability assay.

SBC-1 = type: functional, cell-based; conditions: Homo sapiens;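 also: cell viability assay measuring growth inhibition of the SBC-1 cell line, IC50 being the concentration that halves growth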
Description: SANGER: Inhibition of human SBC-1 cell growth in a cell viability assay.

RPMI-8866 = type: functional, cell-based; conditions: Homo sapiens
Description: SANGER: Inhibition of human RPMI-8866 cell growth in a cell viability assay.

FaDu = type: functional, cell-based, Homo sapiens; conditions: Homo sapiens, FaDu;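 also: cell viability readout of growth inhibition in FaDu cells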
Description: SANGER: Inhibition of human FADU cell growth in a cell viability assay.

SAOS-2 = type: functional, cell-based, Homo sapiens; conditions: Homo sapiens, SAOS-2;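 also: growth inhibition of human Saos-2 cells determined by a cell viability assay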
Description: SANGER: Inhibition of human Saos-2 cell growth in a cell viability assay.

NUGC-3 = type: functional, cell-based, Homo sapiens; conditions: Homo sapiens, NUGC-3;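 also: growth inhibition of human NUGC-3 cells, read out with a cell viability assay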
Description: SANGER: Inhibition of human NUGC-3 cell growth in a cell viability assay.

MFM-223 = type: functional, cell-based, Homo sapiens; conditions: Homo sapiens, MFM-223
Description: SANGER: Inhibition of human MFM-223 cell growth in a cell viability assay.

KOSC-2 = type: functional, cell-based, Homo sapiens; conditions: Homo sapiens, KOSC-2;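 also: growth inhibition of KOSC-2 cells, read out by a cell viability assay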
Description: SANGER: Inhibition of human KOSC-2 cell growth in a cell viability assay.

MHH-ES-1 = type: functional, cell-based, Homo sapiens; conditions: Homo sapiens, MHH-ES-1;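 also: cell growth inhibition measured by a cell viability assay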
Description: SANGER: Inhibition of human MHH-ES-1 cell growth in a cell viability assay.

NCI-H1355 = type: functional, cell-based, Homo sapiens; conditions: Homo sapiens, NCI-H1355;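 also: growth inhibition of human NCI-H1355 cells, read out by a cell viability assay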
Description: SANGER: Inhibition of human NCI-H1355 cell growth in a cell viability assay.

IST-SL1 = type: functional, cell-based, Homo sapiens; conditions: Homo sapiens, IST-SL1;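 also: growth inhibition of human IST-SL1 cells, read out with a cell viability assay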
Description: SANGER: Inhibition of human IST-SL1 cell growth in a cell viability assay.

RMG-I = type: functional, cell-based, Homo sapiens; conditions: Homo sapiens, RMG-I;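 also: growth inhibition of human RMG-I cells, read out with a cell viability assay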
Description: SANGER: Inhibition of human RMG-I cell growth in a cell viability assay.

CAKI-1 = type: functional, cell-based, Homo sapiens; conditions: Homo sapiens, CAKI-1;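 also: growth inhibition of CAKI-1 cells, measured by a cell viability assay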
Description: SANGER: Inhibition of human CAKI-1 cell growth in a cell viability assay.

SK-UT-1 = type: functional, cell-based, Homo sapiens; conditions: Homo sapiens, SK-UT-1;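 also: growth inhibition of SK-UT-1 cells, measured by a cell viability assay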
Description: SANGER: Inhibition of human SK-UT-1 cell growth in a cell viability assay.

D-502MG = type: functional, cell-based, Homo sapiens; conditions: Homo sapiens, D-502MG
Description: SANGER: Inhibition of human D-502MG cell growth in a cell viability assay.

NCI-H2122 = type: functional, cell-based, Homo sapiens; conditions: Homo sapiens, NCI-H2122;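 also: growth inhibition of the cells, read out with a cell viability assay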
Description: SANGER: Inhibition of human NCI-H2122 cell growth in a cell viability assay.

EW-1 = type: functional, cell-based, Homo sapiens; conditions: Homo sapiens, EW-1;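 also: growth inhibition of the human EW-1 cell line, read out by a cell viability assay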
Description: SANGER: Inhibition of human EW-1 cell growth in a cell viability assay.

SK-OV-3 = type: functional, cell-based, Homo sapiens; conditions: Homo sapiens, SK-OV-3;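 also: growth inhibition of SK-OV-3 human cells, read out with a cell viability assay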
Description: SANGER: Inhibition of human SK-OV-3 cell growth in a cell viability assay.

Measured: IC50

COc1ccc(C2=N[C@@H](c3ccc(Cl)cc3)[C@@H](c3ccc(Cl)cc3)N2C(=O)N2CCNC(=O)C2)c(OC(C)C)c1 [NUTLIN-3]
2970 nM: D-502MG
4320 nM: NB17
2350 nM: A101D
3130 nM: CAKI-1
2540 nM: VA-ES-BJ
2720 nM: RS4-11
2560 nM: RPMI-8866
6590 nM: NCI-H2122
> 8000 nM: all other assays above

C=CCNC1=C2C[C@@H](C)C[C@H](OC)[C@H](O)[C@@H](C)/C=C(\C)[C@H](OC(N)=O)[C@@H](OC)/C=C\C=C(/C)C(=O)NC(=CC1=O)C2=O [TANESPIMYCIN]
134 nM: BPH-1
97.4 nM: NCI-H2122
< 3.91 nM: IST-MEL1
145 nM: NUGC-3
880 nM: NB17
264 nM: MFM-223
44.5 nM: VA-ES-BJ
92.6 nM: KYSE-180
442 nM: SW756
321 nM: CAKI-1
127 nM: SAS
80 nM: TE-11
31.8 nM: SK-UT-1
177 nM: KOSC-2
185 nM: DEL
105 nM: MMAC-SF
281 nM: NCI-H1355
102 nM: A498
45.5 nM: CaR-1
59.4 nM: GT3TKB
267 nM: SBC-1
397 nM: RO82-W-1
879 nM: SAOS-2
481 nM: A101D
322 nM: UACC-62
28.9 nM: ME-180
672 nM: MDA-MB-453
339 nM: DMS-273
2.09 nM: FaDu
79.1 nM: M14
189 nM: BCPAP
237 nM: BHY | MHH-ES-1
176 nM: SK-OV-3
468 nM: COR-L23
114 nM: KALS-1
71.3 nM: HCC1806
> 1000 nM: all other assays above

O=C1N=C(NCc2cccs2)S/C1=C\c1ccc2ncccc2c1
2970 nM: BPH-1
2060 nM: A4-Fuk
3450 nM: KOSC-2
> 5000 nM: all other assays above

— ChEMBL document CHEMBL1201861, “Genomics of Drug Sensitity in Cancer screening data, Wellcome Trust Sanger Institute”
